Assay results reported in US10322187B2, “Reduced toxicity molecular conjugates of anti-fungal agents” (Lehigh University, priority 2015, dated 2019).
Read-outs that look alike come from different tables or passages of the source.

Key:
C. albicans = assay: Antifungal activities, MIC/MFC; format: cell-based
Protocol: (§1) A similar sequence of reactions was carried out using lysine dicholamide in place of cholic acid afforded VJ-1147 of Table 2. To assess the antifungal properties of the diwalled VJ-1138 (Table 2) and 2a of Table 3, their in vitro activities were examined against four clinically relevant microbes, i.e., C. albicans, C. glabrata, C. neoformans, and C. gatti (Table 4).
(§2) Minimum inhibitory concentrations (MIC) and minimum fungicidal concentrations (MFC) are the lowest concentrations that are required for completely inhibiting growth, and killing at least 99% of the fungi, respectively.
(§3) The above molecules were tested for antifungal activity. Minimum inhibitory concentrations (MIC) and minimum fungicidal concentrations (MFC) are the lowest concentrations that are required for completely inhibiting growth, and killing at least 99% of the fungi, respectively. As is apparent from Table 4 below, there is a general trend; i.e., increased antifungal activity is observed as the length of the hydrocarbon chain that separates the facial amphiphile from the Amphotericin B moiety is decreased.

C. gatti = assay: Antifungal activities, MIC/MFC; format: cell-based
Protocol: as §1, §2, §3

C. glabrata = assay: Antifungal activities, MIC/MFC; format: cell-based
Protocol: as §1, §2, §3

C. neoformans = assay: Antifungal activities, MIC/MFC; format: cell-based
Protocol: as §1, §2, §3

[1] = Critical aggregation concentration (CAC) by UV absorptivity; format: physicochemical; conditions: PBS, 37° C., absorptivity at 409 nm
Excerpt: If one lets: (i) T, m, and P represent the total, the monomeric, and the aggregate concentrations of this macrolide, respectively; (ii) ε represent the apparent molar absorptivity; and (iii) εm and εp represent the molar absorptivity for the monomeric and aggregate components, respectively, then it can be shown that ε=εp+(εm−εp)m/T. See Yamashita K, Janout V, Bernard E M, Armstrong D, and Regen, S L. Micelle/monomer control over the membrane disrupting properties of an amphiphilic antibiotic. J. Am. Chem. Soc. 117 (1995) 6249-6253. At concentrations that are in excess of its CAC, m is constant, and ε is expected to be inversely proportional to T. Thus, by measuring the apparent molar absorptivity as a function of the reciprocal of the concentration of VJ-1138, its CAC value is estimated to be 0.9 μM (from the intercept of two straight lines).
Determination of Critical Aggregation Concentration (CAC) of AmphB and molecular conjugates. Solutions of AmphB and molecular conjugates in DMSO (Sigma-Aldrich) were prepared having a concentration of 1.00 mM. […] The UV spectrum was then recorded in the range of 250-550 nm. The absorbance at 408 nm was plotted as a function of the reciprocal value of the concentration of AmB and the critical aggregation concentration of the molecular conjugates was then determined, graphically.

sheep red blood cells = assay: Hemolysis measurements, release of hemoglobin; format: cell-based
Protocol: Sheep Red Blood Cells, 10%, in saline (Innovative Research, Novi, Mich.), were diluted in saline (pH 7.4) to a concentration of 4%, which corresponds to 4×10^7 cells/mL. All measurements were carried out in duplicate. Solutions of Amphotericin B (Sigma-Aldrich) were prepared by adding 10 μL of a DMSO solution containing a given concentration of the antibiotic (i.e., ranging from 0.2 mM to 50 mM) to 490 μL of PBS. After the resulting solution was vortex mixed for 30 seconds (s) it was incubated at 37° C. for 15 min. The resulting solution of antibiotic (500 μL) was then mixed with 500 μL of the 4% erythrocyte dispersion at 37° C. in a 1 mL plastic centrifuge vial to give a dispersion that was vortex mixed at slow rate for 5 s. After 1 h of incubation at 37° C., all samples were centrifuged (1500 g, Eppendorf centrifuge 5415C, 5000 rpm) at rt for 5 min. The supernatant (˜0.7 mL) from each plastic vial was carefully separated from sediment using a disposable glass pipette and quickly transferred to test tube. A volume of 50 μL of this supernatant was then transferred to a UV cell containing 500 μL of PBS that was maintained at 37° C. The UV spectrum was then scanned (450-650 nm) and the absorbance at 575 nm used to determine the extent of hemolysis. The extent of 0% and 100% of hemolysis was obtained from A575 values of experiments that were run in absence of AmphB (control, [A575,]o) and in presence, 100 μM AmphB ([A575]max), respectively.

[2] = system: C. albicans, C. glabrata, C. neoformans, and C. gatti; assay: In vitro antifungal activity, general statements on the four microbes; format: cell-based; conditions: at 11 μM
Protocol: as §1, §2

HEK293T cells = assay: Inhibition of cell growth, MTT cell viability; format: cell-based, human; conditions: varying concentrations; FIG. 11
Protocol: Human embryonic kidney HEK293 cells were cultured in Dulbecco's modified Eagle's medium (DMEM supplemented with 10% FBS, 100 U/mL penicillin, and 0.1 mg/mL SI-10 streptomycin) in a humidified atmosphere of 5% CO2 at 37° C.
HEK293T cells were seeded in 96-well plates at a density of 6,000 cells/well and incubated overnight. Before treatment, compounds aliquots were solubilized in DMSO to obtain 10 mM stock solutions. Appropriate volumes of these stock solutions were added to DMEM media so the final concentration of DMSO is equal to 1%. After removal of cell media, 50 μL of treatment solutions were added to each well and incubated at 37° C. for 2 h. After treatment, the media was removed, and 100 μL of complete medium was added to each well before returning the plate to the incubator. Cell viability was determined after 72 h using the colorimetric MTT assay. Briefly, 10 μL of a 5 mg/mL MTT stock solution was added to the treated cells and incubated for 2 h at 37° C. The resulting formazan crystals were solubilized in 200 μL of DMSO, and the absorbance was measured at 580 nm using an Infinite 200 PRO microplate reader (Tecan). Cell viability was calculated against control cells treated with the vehicle in DMEM.

[3] = second Table 4 (Example 4), C. albicans
[4] = second Table 4 (Example 4), C. gatti
[5] = second Table 4 (Example 4), C. glabrata
[6] = second Table 4 (Example 4), C. neoformans
[7] = at concentrations as high as 400 μM, 37° C. in PBS, pH 7.4
[8] = summary, no concentration stated

C[C@@H]1[C@H](O)[C@@H](C)/C=C/C=C/C=C/C=C/C=C/C=C/C=C/[C@H](O[C@@H]2O[C@H](C)[C@@H](O)[C@H](N)[C@@H]2O)C[C@@H]2O[C@](O)(C[C@@H](O)C[C@@H](O)[C@H](O)CC[C@@H](O)C[C@@H](O)CC(=O)O[C@H]1C)C[C@H](O)[C@H]2C(=O)O [AmphB, amphotericin B, reference compound]
MIC (C. albicans; Candida albicans, first Table 4, lowest concentration completely inhibiting growth, C. albicans, read-out: MIC): 0.5 µM
MFC (C. albicans; Candida albicans, first Table 4, lowest concentration killing at least 99% of the fungi, C. albicans, read-out: MFC): 1 µM
MFC (C. albicans; Candida albicans, second Table 4 (Example 4), C. albicans, read-out: MFC): 1 µg/mL
MIC (C. albicans; Candida albicans, second Table 4 (Example 4), C. albicans, read-out: MIC): 0.5 µg/mL
MFC (C. gatti; first Table 4, C. gatti, read-out: MFC): 0.5 µM
MIC (C. gatti; first Table 4, C. gatti, read-out: MIC): 0.3 µM
MFC (C. gatti; second Table 4 (Example 4), C. gatti, read-out: MFC): 0.5 µg/mL
MIC (C. gatti; second Table 4 (Example 4), C. gatti, read-out: MIC): 0.3 µg/mL
MFC (C. glabrata; Nakaseomyces glabratus, first Table 4, C. glabrata): 1 µM
MIC (C. glabrata; Nakaseomyces glabratus, first Table 4, C. glabrata, read-out: MIC): 0.5 µM
MFC (C. glabrata; Nakaseomyces glabratus, second Table 4 (Example 4), C. glabrata): 1 µg/mL
MIC (C. glabrata; Nakaseomyces glabratus, second Table 4 (Example 4), C. glabrata, read-out: MIC): 0.5 µg/mL
MFC (C. neoformans; Cryptococcus neoformans, first Table 4, C. neoformans, read-out: MFC): 0.5 µM
MIC (C. neoformans; Cryptococcus neoformans, first Table 4, C. neoformans, read-out: MIC): 0.3 µM
MFC (C. neoformans; Cryptococcus neoformans, second Table 4 (Example 4), C. neoformans, read-out: MFC): 0.5 µg/mL
MIC (C. neoformans; Cryptococcus neoformans, second Table 4 (Example 4), C. neoformans, read-out: MIC): 0.3 µg/mL
critical aggregation concentration (CAC) [1]: ~0.9 µM
EH50, concentration required to induce 50% release of hemoglobin from erythrocytes (sheep red blood cells; 37° C. in saline, pH 7.4): 4 µM

CC1OC(O[C@H]2/C=C/C=C/C=C/C=C/C=C/C=C/C=C/[C@H](C)[C@@H](O)[C@@H](C)[C@H](C)OC(=O)C[C@H](O)C[C@H](O)CC[C@@H](O)[C@H](O)C[C@H](O)C[C@]3(O)C[C@H](O)[C@@H](C(=O)NCCCCCCCC(=O)N(CCCCNC(=O)C(CCCCNC(=O)CC[C@@H](C)C4CCC5C6C(O)CC7CC(O)CCC7(C)C6CC(O)C54C)NC(=O)CC[C@@H](C)C4CCC5C6C(O)CC7CC(O)CCC7(C)C6CC(O)C54C)CCCNC(=O)C(CCCCNC(=O)CC[C@@H](C)C4CCC5C6C(O)CC7CC(O)CCC7(C)C6CC(O)C54C)NC(=O)CC[C@@H](C)C4CCC5C6C(O)CC7CC(O)CCC7(C)C6CC(O)C54C)[C@H](C2)O3)C(O)C(N)C1O (stereo partly drawn) [VJ-1155]
MIC (C. albicans; Candida albicans): > 11 µM
MIC (C. gatti): > 11 µM
MIC (C. glabrata; Nakaseomyces glabratus): > 11 µM
MIC (C. neoformans; Cryptococcus neoformans): > 11 µM
antifungal activity [2]: no antifungal activity

CC1OC(O[C@H]2/C=C/C=C/C=C/C=C/C=C/C=C/C=C/[C@H](C)[C@@H](O)[C@@H](C)[C@H](C)OC(=O)C[C@H](O)C[C@H](O)CC[C@@H](O)[C@H](O)C[C@H](O)C[C@]3(O)C[C@H](O)[C@@H](C(=O)NCCCCCCCCNC(=O)CC[C@@H](C)C4CCC5C6C(O)CC7CC(O)CCC7(C)C6CC(O)C54C)[C@H](C2)O3)C(O)C(N)C1O (stereo partly drawn) [YYM-69]
MFC (C. albicans; [3]): 2 µg/mL
MIC (C. albicans; [3]): 2 µg/mL
MFC (C. gatti; [4]): 2 µg/mL
MIC (C. gatti; [4]): 1 µg/mL
MIC (C. glabrata; [5]): >16/— μg/mL
MFC (C. neoformans; [6]): 2 µg/mL
MIC (C. neoformans; [6]): 1 µg/mL
hemolytic activity (sheep red blood cells; [7]): negligible hemolytic activities
hemolytic activity (sheep red blood cells; [8]): negligible hemolytic activity
toxicity towards HEK293 cells (HEK293T cells): negligible cytotoxicity

CC1OC(O[C@H]2/C=C/C=C/C=C/C=C/C=C/C=C/C=C/[C@H](C)[C@@H](O)[C@@H](C)[C@H](C)OC(=O)C[C@H](O)C[C@H](O)CC[C@@H](O)[C@H](O)C[C@H](O)C[C@]3(O)C[C@H](O)[C@@H](C(=O)NCCCCCCCCCCNC(=O)CC[C@@H](C)C4CCC5C6C(O)CC7CC(O)CCC7(C)C6CC(O)C54C)[C@H](C2)O3)C(O)C(N)C1O (stereo partly drawn) [YYM-71]
MIC (C. albicans; [3]): >16/— μg/mL
MFC (C. gatti; [4]): > 16 µg/mL
MIC (C. gatti; [4]): 1 µg/mL
MIC (C. glabrata; [5]): >16/— μg/mL
MFC (C. neoformans; [6]): > 16 µg/mL
MIC (C. neoformans; [6]): 2 µg/mL
hemolytic activity (sheep red blood cells; [7]): negligible hemolytic activities
hemolytic activity (sheep red blood cells; [8]): negligible hemolytic activity
toxicity towards HEK293 cells (HEK293T cells): negligible cytotoxicity
